Data from patent US9340577B2, “HLA binding motifs and peptides and their uses” (priority 1992, dated 2016).
Read-outs that look alike come from different tables or passages of the source. No end group written: not given here.

Columns and labels:
Experiment in all cases: biochemical
A*0202 = A*0202 (Homo sapiens, UniProt P04439, D140Y/D185E/D98H/E176V/E277Q/G131W/G231S/I119L/I121R/I166T/I218V/L180W/L300P/L318F/N151K/N90K/P208A/P217A/Q67R/Q86G/Q94H/R138H/R169H/T345S); type: binding
HLA-A*0201 (HLA-A2.1) = HLA-A*0201 (HLA-A2.1) (Homo sapiens, UniProt P04439, D140Y/D185E/D98H/E176V/E277Q/G131W/G231S/I119V/I121R/I166T/I218V/L300P/L318F/N151K/N90K/P208A/P217A/Q86G/Q94H/R138H/R169H/T345S); type: binding
A*6802 = A*6802 (Homo sapiens, UniProt P04439, A269V/D140Y/D185E/E176V/E277Q/E87N/F33Y/G231S/I121R/I166T/I218V/L180W/L300P/L318F/N151K/P208A/P217A/Q86R/R138H/R169H/S129P/T345S/V36M); type: binding
DRB4*0101 = DRB4*0101 (Homo sapiens, UniProt P01903+P13762, G164S); type: binding
DRB1*0802 = DRB1*0802 (Homo sapiens, UniProt P01903+P01911, A100R/A103L/A169T/F76Y/H45Y/I96F/K41T/L162R/M171V/P40S/Q125H/Q178H/Q39Y/Q99D/R218S/R42G/S66Y/V115G/W38E); type: binding
DR1 (DRB1*0101) = DR1 (DRB1*0101) (Homo sapiens, UniProt P01903+P01911, A100R/D57E/F55L/F60I/F76Y/I96L/L162R/M171V/P40L/Q125E/R42F/V115G/Y59C); type: binding
DR4w4 (DRB1*0401) = DR4w4 (DRB1*0401) (Homo sapiens, UniProt P01903+P01911, A100K/A169T/F76Y/I96L/K127E/L162R/M171V/N62H/P40V/Q125Y/R42H/S133A/S149N/S66Y/V115G/V209L/W38E); type: binding
DRB5*0101 = DRB5*0101 (Homo sapiens, UniProt P01903+Q30154)
DRB1*0901 = DRB1*0901 (Homo sapiens, UniProt P01903+P01911, A100R/A103E/D57H/D86V/F55Y/F60I/F76Y/I96F/K127E/L162R/M171V/P40D/Q125H/Q99R/R33Q/R42F/S133A/S66N/T210M/V115G/W38K/Y107V/Y59G/Y89S); type: binding
DRB1*1101 = DRB1*1101 (Homo sapiens, UniProt P01903+P01911, A100R/A169T/A87E/I96F/K41T/L162R/M171V/P40S/Q125H/Q178H/Q39Y/Q99D/R42S/S66Y/T262R/V115G/W38E)
DRB1*1302 = DRB1*1302 (Homo sapiens, UniProt P01903+P01911, A100E/A169T/K41T/L162R/M171V/P40S/Q125H/Q178H/Q39Y/Q99D/R42S/S66N/T262R/V115G/W38E/Y61H); type: binding
DRB1*1501 = DRB1*1501 (Homo sapiens, UniProt P01903+P01911); type: binding
A*0206 = A*0206 (Homo sapiens, UniProt P04439, D140Y/D185E/D98H/E176V/E277Q/F33Y/G131W/G231S/I119V/I121R/I166T/I218V/L300P/L318F/N151K/N90K/P208A/P217A/Q86G/Q94H/R138H/R169H/T345S); type: binding
DR7 (DRB1*0701) = DR7 (DRB1*0701) (Homo sapiens, UniProt P01903+P01911, A100R/A102G/A103Q/D57E/D86V/E43K/F76Y/K127E/L162R/M171V/P40G/Q125H/Q99D/R33Q/R42Y/R54Q/S133A/S66F/T210M/V115G/Y107V/Y59L/Y89S); type: binding

Chain of DRB1*1302 (P01903 26-254 limits assumed, other chains not shown): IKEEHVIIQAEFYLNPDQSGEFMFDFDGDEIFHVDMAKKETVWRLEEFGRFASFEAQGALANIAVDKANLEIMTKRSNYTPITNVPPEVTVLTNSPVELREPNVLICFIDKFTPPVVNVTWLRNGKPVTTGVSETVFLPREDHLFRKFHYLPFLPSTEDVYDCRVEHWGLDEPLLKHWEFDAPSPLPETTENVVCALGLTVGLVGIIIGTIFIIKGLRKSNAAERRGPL
Chain of DRB1*1101 (P01903 26-254 limits assumed, other chains not shown): as above

| Compound | IC50 (A*6802) [nM] | IC50 (DRB4*0101) [nM] | IC50 (DRB1*0802) [nM] | IC50 (DRB5*0101; Binding affinity DRB5 *0101) [nM] | IC50 (DRB1*0901) [nM] | IC50 (DRB1*1302) [nM] | IC50 (DRB1*1501) [nM] | IC50 (DR7 (DRB1*0701)) [nM] | other results |
| --- | --- | --- | --- | --- | --- | --- | --- | --- | --- |
| TTAKLTIESV [Peptide 9013.0125] | 53 |  |  |  |  |  |  |  | IC50 (A*0202): 4070 nM; IC50 (HLA-A*0201 (HLA-A2.1)): > 20000 nM |
| LVQLKCPPLLITSNI [Peptide 89.0021] |  | 234 | > 20000 | > 20000 | > 20000 |  |  |  | IC50 (DR1 (DRB1*0101)): 72 nM; IC50 (DR4w4 (DRB1*0401)): 4290 nM; IC50 (DRB1*1101; Binding affinity DRB1 *1101): > 20000 nM |
| KLFCADPAL [Peptide 1578.50] | > 20000 |  |  |  |  |  |  |  | IC50 (A*0202): 6.8 nM |
| CC[C@H](C)[C@H](NC(=O)[C@@H](N)Cc1c[nH]c2ccccc12)C(=O)N[C@H](C(=O)N[C@@H](CCC(N)=O)C(=O)N[C@@H](CS)C(=O)N[C@@H](Cc1ccccc1)C(=O)N[C@@H](CC(C)C)C(=O)N1CCC[C@H]1C(=O)N[C@H](C(=O)N[C@@H](Cc1ccccc1)C(=O)N[C@@H](CC(C)C)C(=O)N[C@@H](C)C(=O)N[C@@H](CCC(N)=O)C(=O)N1CCC[C@H]1C(=O)N1CCC[C@H]1C(=O)N[C@@H](CO)C(=O)NCC(=O)N[C@@H](CCC(N)=O)C(=O)N[C@@H](CCCNC(=N)N)C(=O)N[C@@H](CCCNC(=N)N)C(=O)O)C(C)C)[C@@H](C)O [Peptide F189.02] |  | 688 |  |  |  | 23600 | 726 |  |  |
| GQFRVYPEV [Peptide 9013.0038] | > 20000 |  |  |  |  |  |  |  | IC50 (A*0206): 43 nM |
| NKALQAIELQLTLET [Peptide 89.0151] |  | 32 |  | 462 | 16800 | 1800 | > 20000 | 1200 | IC50 (DR1 (DRB1*0101)): 80 nM |
| IQNIIQNDV [Peptide 9013.0032] | > 20000 |  |  |  |  |  |  |  | IC50 (A*0202): 1930 nM; IC50 (HLA-A*0201 (HLA-A2.1)): 16200 nM |
| QQHTQELFV [Peptide 9013.0078] | > 20000 |  |  |  |  |  |  |  | IC50 (A*0202): 5290 nM; IC50 (HLA-A*0201 (HLA-A2.1)): 2480 nM |
| CC[C@H](C)[C@H](NC(=O)[C@@H](NC(=O)[C@H](CCSC)NC(=O)[C@H](Cc1ccc(O)cc1)NC(=O)CNC(=O)[C@@H](NC(=O)[C@H](CO)NC(=O)[C@@H](NC(=O)[C@H](CCC(N)=O)NC(=O)[C@@H](NC(=O)[C@H](CO)NC(=O)[C@H](CC(N)=O)NC(=O)[C@@H]1CCCN1C(=O)[C@@H](NC(=O)[C@@H](N)[C@@H](C)O)[C@@H](C)CC)C(C)C)[C@@H](C)CC)C(C)C)[C@@H](C)O)C(=O)O [Peptide 1601.42] |  | 16 |  |  |  |  | 10 | 9 |  |
| EIYIIEETTCTLVAG [Peptide 90.0251] |  | 1100 |  |  |  | 1110 |  |  |  |
| STQELFIPNV [Peptide 9013.0181] | 854 |  |  |  |  |  |  |  | IC50 (A*0202): 2100 nM; IC50 (HLA-A*0201 (HLA-A2.1)): 5500 nM |
| LKTIIKPHCMYYHMQ [Peptide 89.0119] |  | 1680 | > 20000 |  | > 20000 | 104 | 17400 | > 20000 | IC50 (DR1 (DRB1*0101)): > 20000 nM; IC50 (DR4w4 (DRB1*0401)): 2000 nM; IC50 (DRB5*0101): > 20000 nM; IC50 (DRB1*1101; Binding affinity DRB1 *1101): > 20000 nM |
| SWGMVMLMLVRFKCA [Peptide 89.0044] |  | 1440 | 9990 | 5060 | > 20000 | 975 |  | > 20000 | IC50 (DR1 (DRB1*0101)): 4890 nM; IC50 (DR4w4 (DRB1*0401)): 3380 nM |
| KILQQLLFI [Peptide 1525.21] | > 20000 |  |  |  |  |  |  |  | IC50 (HLA-A*0201 (HLA-A2.1)): 41 nM; IC50 (A*0206): 51 nM |
| ACSWGMVVLLLVRYK [Peptide 89.0004] |  | 1520 | 4770 | > 20000 | 2000 |  | 870 |  | IC50 (DR1 (DRB1*0101)): 1020 nM; IC50 (DR4w4 (DRB1*0401)): 701 nM |
| RLTVSKLMSQLLNIP [Peptide 89.0100] |  | 4820 | > 20000 | > 20000 | > 20000 | 7.3 | > 20000 | 4990 | IC50 (DRB1*1101; Binding affinity DRB1 *1101): > 20000 nM |
| WLNYTPGPGI [Peptide 73.0129] |  |  |  |  |  |  |  |  | IC50 (A*0206): > 20000 nM |
| RLLLTASLLV [Peptide 9013.0117] | 5940 |  |  |  |  |  |  |  | IC50 (A*0202): 123 nM; IC50 (HLA-A*0201 (HLA-A2.1)): 57 nM |
| TQQATPGPV [Peptide 9013.0027] | > 20000 |  |  |  |  |  |  |  | IC50 (HLA-A*0201 (HLA-A2.1)): > 20000 nM; IC50 (A*0206): 5870 nM |
| YTNWKFIYL [Peptide 1578.47] | 146 |  |  |  |  |  |  |  | IC50 (A*0206): 84 nM |
| ACSWGMVMLMLVRFK [Peptide 89.0043] |  | 467 | 2900 | 5630 | 10500 |  |  | > 20000 | IC50 (DRB1*1101; Binding affinity DRB1 *1101): 679 nM |
| TNCMLIQPPKLRSTA [Peptide 89.0046] |  | 479 |  |  | > 20000 | 5100 | 5120 | 1120 | IC50 (DRB1*1101; Binding affinity DRB1 *1101): 1090 nM |
| GHQVVPPMAVSKAKA [Peptide 90.0011] |  | 66 | 1630 | 5320 |  | 2580 |  | 6240 | IC50 (DR4w4 (DRB1*0401)): 451 nM; IC50 (DRB1*1101; Binding affinity DRB1 *1101): 2060 nM |
| LIRLENAILFTAREH [Peptide 90.0002] |  | 339 | 11700 | 4270 |  | 51 | 2070 |  | IC50 (DR1 (DRB1*0101)): 23 nM; IC50 (DR4w4 (DRB1*0401)): 1220 nM; IC50 (DRB1*1101; Binding affinity DRB1 *1101): 5690 nM |
| CC[C@H](C)[C@H](NC(=O)[C@H](CCCCN)NC(=O)[C@H](CC(N)=O)NC(=O)[C@@H](NC(=O)[C@@H](NC(=O)[C@H](CC(C)C)NC(=O)[C@@H](NC(=O)[C@H](CO)NC(=O)[C@H](CC(C)C)NC(=O)[C@H](C)N)[C@@H](C)O)C(C)C)C(C)C)C(=O)N[C@@H](CCCNC(=N)N)C(=O)NCC(=O)N[C@H](C(=O)N[C@@H](Cc1ccccc1)C(=O)N[C@@H](CCCCN)C(=O)O)[C@@H](C)O [Peptide F196.09] |  | 214 |  |  |  | 7.6 | 160 |  | IC50 (DRB5*0101): 38 nM; IC50 (DRB1*1101): 32 nM |
